Experiment [1] has as its target T1, human GPCR sphingosine 1-phosphate receptor 5 (S1PR5) (Homo sapiens, UniProt Q9H228).
T1 construct: host or cells: CHO
Nature of the experiment: S1PR5 selectivity assay (Ca2+ flux, antagonist, S1PR5 specific agonist trigger). The class given is cell-based. The following applies: S1P5 antagonist EC50, CHO cells overexpressing human S1PR5 and Gq protein. The procedure: (§1) After readout of the agonist activity, the plates are incubated for 15 min at 37° C. and 5% CO2. Then, cells are stimulated with 10 μL Sphingosine-1-Phosphate (S1P) (Avanti Polar lipids-860492P) at its EC80 concentration. Intracellular Ca^2+ changes are immediately measured by reading fluorescence during 3 min (FDSS/μCELL reader). The ratio of the maximal fluorescence over the background fluorescence before compound injection is used to determine compound response.
(§2) For EC50 determination, a 10 point dilution series of compounds starting from 23.3 μM and 20 μM highest final concentration for agonist and antagonist respectively, ⅓ dilution was performed.
(§3) The obtained ratio's for agonist and antagonist readout were normalized versus vehicle and EC100 of S1P as controls for agonist mode and versus vehicle and EC80 of S1P for antagonist mode. From these normalized data EC50 of the compounds are derived.
(§4) To evaluate the selectivity of the compounds for S1PR2 over S1PR1 and S1PR5, a similar assay set up as described above for the S1PR2 calcium flux assays was performed: CHO cells stably overexpressing human GPCR sphingosine 1-phosphate receptor 1 and Gq protein (Euroscreen, FAST-0197A) or overexpressing human GPCR sphingosine 1-phosphate receptor 5 and Gq protein were used (Perkin Elmer, ES-593-A). In case of the S1PR5 assay triggering was done with an S1PR5 specific agonist instead of with S1P (Hobson et al., 2015).
For orientation: Calcium flux is commonly read through the fluorescence of an indicator in the cells.

Experiment [2] has as its target T2, human GPCR sphingosine 1-phosphate receptor 2 (S1PR2) (Homo sapiens, UniProt O95136).
T2 construct: host or cells: CHO
Nature of the experiment: S1P2 antagonist assay (Ca2+ flux, S1P at EC80). The following applies: CHO-S1PR2 cells, highest concentration 20 μM. Format: cell-based. On the procedure: Triggering of S1PR2 by administration of Sphingosine-1-phosphate leads to a transient increase in intracellular Ca^2+. The Ca^2+ flux assays are measuring the release of Ca^2+ intracellularly by use of a Ca^2+ sensitive fluorescent dye. The assay is firstly run in agonist mode (incubation of compounds alone) to ensure that the Ca^2+ released measured is not caused by the test compound having an agonistic effect. Then the assay is continued in antagonist mode (Sphingosine-1-Phosphate added to incubated medium containing the test compounds).
CHO cells stably overexpressing human GPCR sphingosine 1-phosphate receptor 2 (CHO—S1PR2 Perkin Elmer; ES-594-A) are seeded from a frozen stock in 384 wells sterile microplates (50 μL; 7,500 cells/well) and are incubated overnight at 37° C. and 5% CO2. The next day cells are washed twice with starvation medium (F-12 Ham's medium containing 0.1% BSA (Fatty acid free: FAF)) and left in […] starvation medium for 1 h at 37° C., 5% CO2. After this starvation cells are incubated with […] buffer containing the Ca^2+-sensitive fluorescent dye (0.5 mg Fluo8+125 mg Allura Red in 100 ml of 1% DMSO, in HBSS+20 mM Hepes+5 mM probenecid). The cells are incubated for an additional 1 hour after which 10 μL compounds, diluted in HBSS buffer with 20 mM Hepes and 0.1% BSA (FAF), are added to the cells and intracellular Ca^2+ changes are immediately measured by reading fluorescence during 3 min (FDSS/μCELL reader). The ratio of the maximal fluorescence over the background fluorescence before compound injection is used to determine compound response.
as §1, §2, §3

For experiment [3], the target named is T3, human GPCR sphingosine 1-phosphate receptor 1 (S1PR1) (Homo sapiens, UniProt P21453).
T3 construct: host or cells: CHO
T3 sequence (P21453 whole entry): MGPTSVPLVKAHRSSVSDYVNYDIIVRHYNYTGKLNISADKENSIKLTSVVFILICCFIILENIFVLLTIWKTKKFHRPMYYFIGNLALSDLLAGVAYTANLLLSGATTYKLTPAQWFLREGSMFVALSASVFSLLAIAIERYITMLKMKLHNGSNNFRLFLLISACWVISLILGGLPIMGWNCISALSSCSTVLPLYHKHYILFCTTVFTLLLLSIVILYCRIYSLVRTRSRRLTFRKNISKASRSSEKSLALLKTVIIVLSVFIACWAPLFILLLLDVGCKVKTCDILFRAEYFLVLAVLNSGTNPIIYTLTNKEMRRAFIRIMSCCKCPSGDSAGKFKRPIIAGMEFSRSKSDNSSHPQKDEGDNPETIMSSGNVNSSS
In words: S1PR1 selectivity assay (Ca2+ flux, antagonist). Format: cell-based. To be noted: S1P1 antagonist EC50, CHO cells overexpressing human S1PR1 and Gq protein. The procedure: as §1, §2, §3, §4

Another experiment has as its target T4, S1PR2 (Homo sapiens, UniProt O95136).
T4 construct: expressed in transfected cells
Nature of the experiment: GTP-γS binding assay ([35S]GTPγS, S1P at EC80, S1PR2 membranes). The class given is biochemical. The following applies: membranes from stable cell line over expressing S1PR2, read-out: S1PR2 EC. The procedure:
The following assay can be used for determination of S1PR2 activation. The [^35S] GTPγS assay measures the level of G protein activation following agonist occupation of a GPCR, by determining the binding of the non-hydrolysable analog [^35S] GTPγS to Gα subunits.
The assay is performed in a 96 well plate where the following reagents are added. First 50 μL compound is added into the assay plate, followed by addition of 20 μL S1P at EC80 concentration (concentration which gives 80% of the activity of S1PR2). Then, 30 μL of a mixture consisting of membranes-GTPγS-SpA beads is added [mixture consists of 2.5 μg/well membranes derived from stable cell line over expressing S1PR2 (membranes are pre-incubated with 1 μM GDP for 15 min at 4° C.), 0.1 nM [35S]GTPγS (Perkin Elmer, NEG030) and 0.5 mg/well PVT-WGA SpA beads (Perkin Elmer, RPNQ0001)]. All components are diluted in assay buffer containing 20 mM Tris pH 7.5; 10 mM MgCl2; 100 mM NaCl; 0.1% BSA FAF; 50 ug/ml saponin. After an incubation for 4 h at room temperature, plates are centrifuged at 2000 rpm during 20 min. Plates are read on a Topcount reader (Perkin Elmer) immediately after centrifugation (readout time, 1 min/well).
For orientation: Binding of GTPγS marks nucleotide exchange on a G protein.

Here are results for twelve molecules from patent publication US20190388421A1, “NOVEL COMPOUNDS AND PHARMACEUTICAL COMPOSITIONS THEREOF FOR THE TREATMENT OF FIBROSIS” (Galapagos NV, priority 2016, published 2019).

T4 sequence (O95136 whole entry): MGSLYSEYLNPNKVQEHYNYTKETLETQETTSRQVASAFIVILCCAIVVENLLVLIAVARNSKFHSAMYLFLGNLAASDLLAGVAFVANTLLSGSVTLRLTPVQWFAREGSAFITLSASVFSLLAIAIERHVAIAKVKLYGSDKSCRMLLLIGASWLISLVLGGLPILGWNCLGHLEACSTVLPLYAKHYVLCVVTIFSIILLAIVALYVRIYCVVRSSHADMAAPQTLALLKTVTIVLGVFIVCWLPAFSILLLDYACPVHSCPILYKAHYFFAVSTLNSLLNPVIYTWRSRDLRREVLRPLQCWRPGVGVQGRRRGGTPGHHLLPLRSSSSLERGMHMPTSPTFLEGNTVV
T2 sequence (O95136 whole entry): as above
T1 sequence (Q9H228 whole entry): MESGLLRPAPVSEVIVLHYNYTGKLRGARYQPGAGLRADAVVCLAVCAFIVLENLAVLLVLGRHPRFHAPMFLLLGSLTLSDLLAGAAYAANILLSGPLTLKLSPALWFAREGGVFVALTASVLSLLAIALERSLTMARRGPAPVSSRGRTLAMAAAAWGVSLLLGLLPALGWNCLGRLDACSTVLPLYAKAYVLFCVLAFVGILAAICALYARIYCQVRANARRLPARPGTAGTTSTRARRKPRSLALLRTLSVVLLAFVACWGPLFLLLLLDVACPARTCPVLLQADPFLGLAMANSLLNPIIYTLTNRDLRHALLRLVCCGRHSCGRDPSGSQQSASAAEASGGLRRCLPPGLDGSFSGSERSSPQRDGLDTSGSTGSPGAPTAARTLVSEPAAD

Turning to `COCCOc1cc(NC(=O)NCc2cc(C)c(-c3cn(C)nc3C(F)(F)F)nn2)cc(C(F)(F)F)n1` [Compound 25, 1-[2-(2-methoxyethoxy)-6-(trifluoromethyl)-4-pyridyl]-3-[[5-methyl-6-[1-methyl-3-(trifluoromethyl)pyrazol-4-yl]pyridazin-3-yl]methyl]urea], the EC50 is not below 19800 nM in experiment [1], 792 nM in experiment [2], not below 19800 nM in experiment [3] and 2030 nM on S1PR2.
On to `Cc1cc(CNC(=O)Nc2cc(OC3CCOC3)nc(C(F)(F)F)c2)nnc1-c1cn(C)nc1C(F)(F)F` (stereo not drawn) [Compound 26, 1-[[5-methyl-6-[1-methyl-3-(trifluoromethyl)pyrazol-4-yl]pyridazin-3-yl]methyl]-3-[2-tetrahydrofuran-3-yloxy-6-(trifluoromethyl)-4-pyridyl]urea], for which the EC50 in experiment [1] was not below 19800 nM; in experiment [2], 110 nM; in experiment [3], not below 19800 nM; at S1PR2 it was 770 nM.
Consider `COCCOc1cc(NC(=O)NCc2cc(C)c(-c3cn(C)nc3C(F)(F)F)nn2)cc(Cl)n1` [Compound 27, 1-[2-chloro-6-(2-methoxyethoxy)-4-pyridyl]-3-[[5-methyl-6-[1-methyl-3-(trifluoromethyl)pyrazol-4-yl]pyridazin-3-yl]methyl]urea], for which the EC50 was not below 19800 nM in experiment [1], 414 nM in experiment [2], not below 19800 nM in experiment [3] and 641 nM at S1PR2.
`Cc1cc(CNC(=O)Nc2cc(C#N)nc(OCC(F)F)c2)nnc1-c1cn(C)nc1C(F)(F)F` [Compound 28, 1-[2-cyano-6-(2,2-difluoroethoxy)-4-pyridyl]-3-[[5-methyl-6-[1-methyl-3-(trifluoromethyl)pyrazol-4-yl]pyridazin-3-yl]methyl]urea]: the EC50 is 6610 nM in experiment [1], 16 nM in experiment [2], 6610 nM in experiment [3] and 89.7 nM on S1PR2.
With `Cc1cc(CNC(=O)Nc2cc(OCC(C)(F)F)nc(C(F)(F)F)c2)nnc1-c1cn(C)nc1C(F)(F)F` [Compound 34, 1-[2-(2,2-difluoropropoxy)-6-(trifluoromethyl)-4-pyridyl]-3-[[5-methyl-6-[1-methyl-3-(trifluoromethyl)pyrazol-4-yl]pyridazin-3-yl]methyl]urea], the EC50 turned out to be 6610 nM in experiment [1], 65.8 nM in experiment [2], 2020 nM in experiment [3] and 408 nM at S1PR2.
With `Cc1cc(CNC(=O)Nc2cc(OCC3COCCO3)nc(C(F)(F)F)c2)nnc1-c1cn(C)nc1C(F)(F)F` (stereo not drawn) [Compound 37, 1-[2-(1,4-dioxan-2-ylmethoxy)-6-(trifluoromethyl)4-pyridyl]-3-[[5-methyl-6-[1-methyl-3-(trifluoromethyl)pyrazol-4-yl]pyridazin-3-yl]methyl]urea], the EC50 in experiment [1] was not below 19800 nM; in experiment [2], 5430 nM; in experiment [3] it was not below 19800 nM; at S1PR2, 9580 nM.
On to `Cc1cc(CNC(=O)Nc2ccnc(C(F)(F)F)c2)nnc1-c1cn(C)nc1C(F)(F)F` [Compound 43, 1-[[5-methyl-6-[1-methyl-3-(trifluoromethyl)pyrazol-4-yl]pyridazin-3-yl]methyl]-3-[2-(trifluoromethyl)-4-pyridyl]urea], for which the EC50 was not below 19800 nM in experiment [1], 6030 nM in experiment [2], not below 19800 nM in experiment [3] and 4650 nM on S1PR2.
With `Cc1cc(CNC(=O)Nc2ccnc(Cl)c2)nnc1-c1cn(C)nc1C(F)(F)F` [Compound 44, 1-(2-chloro-4-pyridyl)-3-[[5-methyl-6-[1-methyl-3-(trifluoromethyl)pyrazol-4-yl]pyridazin-3-yl]methyl]urea], the EC50 was not below 19800 nM in experiment [1], 4500 nM in experiment [2], not below 19800 nM in experiment [3] and 4150 nM on S1PR2.
For the molecule `CCOc1nc(C#N)cc(NC(=O)NCc2cc(C)c(-c3cn(C)nc3C(F)(F)F)nn2)c1C1CC1` [Compound 58, 1-(6-cyano-3-cyclopropyl-2-ethoxy-4-pyridyl)-3-[[5-methyl-6-[1-methyl-3-(trifluoromethyl)pyrazol-4-yl]pyridazin-3-yl]methyl]urea], the EC50 was not below 19800 nM in experiment [1], 69.6 nM in experiment [2], not below 19800 nM in experiment [3] and 223 nM on S1PR2.
`Cn1cc(-c2nnc(CNC(=O)Nc3cc(Cl)nc(OCC(F)F)c3)cc2C2CC2)c(C(F)(F)F)n1` [Compound 61, 1-[2-chloro-6-(2,2-difluoroethoxy)-4-pyridyl]-3-[[5-cyclopropyl-6-[1-methyl-3-(trifluoromethyl)pyrazol-4-yl]pyridazin-3-yl]methyl]urea]: the EC50 in experiment [1] turned out to be 4040 nM; in experiment [2], 14 nM; in experiment [3] it was 919 nM; on S1PR2 it was 193 nM.
For the molecule `Cn1cc(-c2nnc(CNC(=O)Nc3cc(Cl)nc(OCC(F)F)c3)cc2N2CCOCC2)c(C(F)(F)F)n1` [Compound 62, 1-[2-chloro-6-(2,2-difluoroethoxy)-4-pyridyl]-3-[[6-[1-methyl-3-(trifluoromethyl)pyrazol-4-yl]-5-morpholino-pyridazin-3-yl]methyl]urea], the EC50 in experiment [1] worked out at 11000 nM; in experiment [2], 3130 nM; in experiment [3], 345 nM; on S1PR2, 2370 nM.
The like results for `Cc1cn(-c2nnc(CNC(=O)Nc3cc(Cl)nc(OCC(F)F)c3)cc2C)c(C)n1` [Compound 70] were, in that order, not below 19800 nM, 904 nM, not below 19800 nM and 904 nM.
